In patent publication US20060154903A1, “Betulinol derivatives as anti-cancer agents” (priority 2004, published 2006):
Where two headings read alike, the source gives them in different places.

Experiments:
[1] = system: carcinoma cell line CO-115 of the large intestine; details: cytotoxic activity; cited from earlier work
[2] = system: human prostate cancer LNCaP cell line; assay: MTT cytotoxicity assay, LNCaP; assay type: cell-based; details: LNCaP; for inhibition at 100 µM / inhibition at 10 µM / inhibition at 1 µM: Homo sapiens, read-out: Growth Inhibition %; for inhibition at 100 µM: 1 × 10^−4 M; for inhibition at 10 µM: 1 × 10^−5 M; for inhibition at 1 µM: 1 × 10^−6 M
Experimental: The human prostate cancer LNCaP, PC-3, and DU-145 cell lines, as well as human fibroblast cell line, were obtained from the American Type Culture Collection (“ATCC”) and maintained in RPMI-1640, F-12k, and MEM mediums, respectively, supplemented with 10% FBS. Cell lines were maintained at 37° C. under a humidified atmosphere and 5% CO2 for testing of the cytotoxicity of betulinol derivatives. The cytotoxicity assay was performed using MTT assay according to the instructions of ATCC protocol. Cells 1×10^5 in 0.1 ml/well were plated in 96-well culture plates (Costar) and incubated with a different dilution of betulinol derivatives for 24, 48, and 72 hours. Ten μl of 3-[4,5-dimethylthiazol-2-yl]-2,5 diphenyl tetrazolium bromide was added into each well at the end of each incubation period. The reaction product, formazan, was dissolved in the detergent, and the absorbance was read at 540 nm (Ref).
(§1) However, these compounds were not tested on prostate cancer LNCaP cell line by NCI. […] The anti-tumor activity of the compounds was determined at three doses and the total growth inhibition kill effect as pertinent of the control at 24, 48, and 72 hours as presented in Table 11.

[3] = system: MCF7; assay: In vitro cytotoxicity, Breast (2), MCF7; assay type: cell-based, human
[4] = system: SF-268; assay: In vitro cytotoxicity, CNS (2), SF-268; assay type: cell-based, human
[5] = system: different human tumor cell lines; assay: In vitro cell toxicity test by NCI, tumor cell line panel; assay type: cell-based; details: tested by NCI; comparison among compounds 2, 3, 4 and 5
[6] = system: NCI-H460; assay: In vitro cytotoxicity, Lung (2), NCI-H460; assay type: cell-based, human
[7] = system: Bladder cancer cells; details: 1 × 10^−4 M; Bladder (1), cell line not given
[8] = system: U251; assay: In vitro cytotoxicity, CNS (2), U251; assay type: cell-based, human
[9] = system: MALME-3M; assay: In vitro cytotoxicity, Melanoma (2), MALME-3M; assay type: cell-based, human
[10] = system: RXF 393; assay: In vitro cytotoxicity, Renal (2), RXF 393; assay type: cell-based, human
[11] = system: PC-3; assay: In vitro cytotoxicity, Prostate (2), PC-3; assay type: cell-based, human
[12] = system: TK-10; assay: In vitro cytotoxicity, Renal (2), TK-10; assay type: cell-based, human
Experimental: as §1

[13] = system: OVACR-3; assay: In vitro cytotoxicity, Ovarian (2), OVACR-3; assay type: cell-based, human
Experimental: as §1

[14] = system: HOP-92; assay: In vitro cytotoxicity, Lung (2), HOP-92; assay type: cell-based, human
Experimental: as §1

[15] = system: CAKI-1; assay: In vitro cytotoxicity, Renal (2), CAKI-1; assay type: cell-based, human
Experimental: as §1

[16] = system: DU-145; assay: In vitro cytotoxicity, Prostate (2), DU-145; assay type: cell-based, human
[17] = system: OVCAR-5; assay: In vitro cytotoxicity, Ovarian (2), OVCAR-5; assay type: cell-based, human
Experimental: as §1

[18] = system: T-47d; assay: In vitro cytotoxicity, Breast (2), T-47d; assay type: cell-based, human
[19] = system: NCI-H322M; assay: In vitro cytotoxicity, Lung (2), NCI-H322M; assay type: cell-based, human
Experimental: as §1

[20] = system: 184B5/HER; assay: In vitro cytotoxicity, Breast (1), 184B5/HER; assay type: cell-based; details: 1 × 10^−4 M
[21] = Solubility in DMSO diluted with culture medium (GC)
Experimental: The residue was dissolved in chloroform analyzed on GC.
Ethyl ether was then evaporated. […] Concentration of drug in the above solutions was analyzed by GC and determined from the standard solubility curve.

[22] = Tolerability of solubilized drug in mice with prostate cancer cell xenografts; assay type: in vivo; details: final concentration of 22% ethanol and 2×10^−3 mol per liter of betulonic acid
Experimental: In the present experiment, twelve male athymic mice were utilized. Seven to ten million cells, from a prostate cancer LNCaP cell line culture, were suspended homogenously in a Matrigel basement membrane matrix and transplanted in mice as xenografts. Tumors were visible within a week. […] Control groups of mice were also injected daily with a solution containing 22% ethanol in phosphate buffer solution (PBS) containing 4% albumin for a duration of 24 days. […] The volume of the tumors was determined daily using a caliper in order to observe any change in the tumor volume (FIG. 12), calculated according to the formula π/6(1×w×h). Mice were sacrificed by CO2 asphyxiation on day 24 after the first injection (FIGS. 13A-D). Total percent increase in tumor volume in drug treated and control groups was assessed (FIG. 14).

C=C(C)[C@@H]1CC[C@]2(C(=O)O)CC[C@]3(C)[C@H](CC[C@@H]4[C@@]5(C)CC[C@H](O)C(C)(C)[C@@H]5CC[C@]43C)[C@@H]12 [Compound 2, Betulinic Acid]
LD 50 [1]: 0.375 mg/mL
Growth Inhibition % ([2]; 24 hours, 2.5 × 10^−5 (M)): 41.0%
Growth Inhibition % ([2]; 24 hours, 2.5 × 10^−6 (M)): 24.6%
Growth Inhibition % ([2]; 24 hours, 2.5 × 10^−7 (M)): 11.72%
Growth Inhibition % ([2]; 48 hours, 2.5 × 10^−5 (M)): 73.3%
Growth Inhibition % ([2]; 48 hours, 2.5 × 10^−6 (M)): 69.4%
Growth Inhibition % ([2]; 48 hours, 2.5 × 10^−7 (M)): 62.8%

C=C(C)[C@@H]1CC[C@]2(C=O)CC[C@]3(C)[C@H](CC[C@@H]4[C@@]5(C)CC[C@H](O)C(C)(C)[C@@H]5CC[C@]43C)[C@@H]12 [Compound 3, Betulin Aldehyde]
Growth Inhibition % ([2]; 24 hours, 2.5 × 10^−5 (M)): 29.5%
Growth Inhibition % ([2]; 24 hours, 2.5 × 10^−6 (M)): 11.0%
Growth Inhibition % ([2]; 24 hours, 2.5 × 10^−7 (M)): 6.34%
Growth Inhibition % ([2]; 48 hours, 2.5 × 10^−5 (M)): 72.3%
Growth Inhibition % ([2]; 48 hours, 2.5 × 10^−6 (M)): 40.9%
Growth Inhibition % ([2]; 48 hours, 2.5 × 10^−7 (M)): 27.6%

C=C(C)C1CCC2(C=O)CCC3(C)C(CCC4C5(C)CCC(=O)C(C)(C)C5CCC43C)C12 (stereo not shown) [Compound 5, Betulon Aldehyde]
Percent Killed ([3]; 1 × 10^−4 M): 68%
Percent Killed ([4]; 1 × 10^−4 M): 27%
cell growth inhibitory properties against different human tumor cell lines [5]: most effective inhibition of cell growth without selective activity
Percent Killed ([6]; 1 × 10^−4 M): 89%
Percent Killed [7]: 29%

C=C(C)[C@@H]1CC[C@]2(COC(C)=O)CC[C@]3(C)[C@H](CC[C@@H]4[C@@]5(C)CC[C@H](OC(C)=O)C(C)(C)[C@@H]5CC[C@]43C)[C@@H]12 [Compound 6, Betulin Diacetate]
Percent Killed ([8]; 1 × 10^−4 M): 100%
Percent Killed ([8]; 1 × 10^−5 M): 100%
Percent Killed ([8]; 1 × 10^−6 M): 100%
Percent Killed ([8]; 1 × 10^−7 M): 100%
Percent Killed ([9]; 1 × 10^−4 M): 100%
Percent Killed ([9]; 1 × 10^−5 M): 100%
Percent Killed ([9]; 1 × 10^−6 M): 100%
Percent Killed ([9]; 1 × 10^−7 M): 100%
Percent Killed ([9]; 1 × 10^−8 M): 98%
Percent Killed ([10]; 1 × 10^−4 M): 100%
Percent Killed ([10]; 1 × 10^−5 M): 100%
Percent Killed ([10]; 1 × 10^−6 M): 100%
Percent Killed ([10]; 1 × 10^−7 M): 97%
Percent Killed ([10]; 1 × 10^−8 M): 15%
Percent Killed ([11]; 1 × 10^−4 M): 25%
Percent Killed ([11]; 1 × 10^−5 M): 15%
Percent Killed ([12]; 1 × 10^−4 M): 100%
Percent Killed ([12]; 1 × 10^−5 M): 100%
Percent Killed ([12]; 1 × 10^−6 M): 49%
Percent Killed ([13]; 1 × 10^−4 M): 100%
Percent Killed ([13]; 1 × 10^−5 M): 100%
Percent Killed ([13]; 1 × 10^−6 M): 96%
Percent Killed ([14]; 1 × 10^−4 M): 100%
Percent Killed ([14]; 1 × 10^−5 M): 100%
Percent Killed ([14]; 1 × 10^−6 M): 100%
Percent Killed ([3]; 1 × 10^−4 M): 100%
Percent Killed ([3]; 1 × 10^−5 M): 100%
Percent Killed ([3]; 1 × 10^−6 M): 100%
Percent Killed ([3]; 1 × 10^−7 M): 100%
Percent Killed ([15]; 1 × 10^−4 M): 100%
Percent Killed ([15]; 1 × 10^−5 M): 100%
Percent Killed ([15]; 1 × 10^−6 M): 100%
Percent Killed ([4]; 1 × 10^−4 M): 100%
Percent Killed ([4]; 1 × 10^−5 M): 100%
Percent Killed ([4]; 1 × 10^−6 M): 100%
Percent Killed ([4]; 1 × 10^−7 M): 75%
Percent Killed ([4]; 1 × 10^−8 M): 15%
Percent Killed ([16]; 1 × 10^−4 M): 100%
Percent Killed ([16]; 1 × 10^−5 M): 100%
Percent Killed ([16]; 1 × 10^−6 M): 100%
Percent Killed ([16]; 1 × 10^−7 M): 100%
Percent Killed ([16]; 1 × 10^−8 M): 27%
Percent Killed ([17]; 1 × 10^−4 M): 100%
Percent Killed ([17]; 1 × 10^−5 M): 100%
Percent Killed ([17]; 1 × 10^−6 M): 100%
Percent Killed ([18]; 1 × 10^−4 M): 100%
Percent Killed ([18]; 1 × 10^−5 M): 100%
Percent Killed ([18]; 1 × 10^−6 M): 100%
Percent Killed ([18]; 1 × 10^−7 M): 23%
Percent Killed ([6]; 1 × 10^−4 M): 100%
Percent Killed ([6]; 1 × 10^−5 M): 100%
Percent Killed ([6]; 1 × 10^−6 M): 100%
Percent Killed ([6]; 1 × 10^−7 M): 25%
Percent Killed ([19]; 1 × 10^−4 M): 100%
Percent Killed ([19]; 1 × 10^−5 M): 100%
Percent Killed ([19]; 1 × 10^−6 M): 100%

C=C(C)C1CCC2(COC)CCC3(C)C(CCC4C5(C)CCC(OC)C(C)(C)C5CCC43C)C12 (stereo not shown) [Compound 7, Betulin Dimethyl ether (Cornelon)]
Percent Killed ([3]; 1 × 10^−4 M): 97%
Percent Killed ([4]; 1 × 10^−4 M): 100%
Percent Killed [20]: Toxic
Percent Killed ([6]; 1 × 10^−4 M): 80%
Percent Killed [7]: 30%

C=C(C)[C@@H]1CC[C@]2(CO)CC[C@]3(C)[C@H](CC[C@@H]4[C@@]5(C)CC[C@H](OC(C)=O)C(C)(C)[C@@H]5CC[C@]43C)[C@@H]12 [Compound 8, 3-Acetoxy Betulin]
Growth Inhibition % ([2]; 24 hours, 2.5 × 10^−5 (M)): 12.4%
Growth Inhibition % ([2]; 24 hours, 2.5 × 10^−6 (M)): 10.4%
Growth Inhibition % ([2]; 24 hours, 2.5 × 10^−7 (M)): 0%
Growth Inhibition % ([2]; 48 hours, 2.5 × 10^−5 (M)): 28.3%
Growth Inhibition % ([2]; 48 hours, 2.5 × 10^−6 (M)): 44.7%
Growth Inhibition % ([2]; 48 hours, 2.5 × 10^−7 (M)): 17.4%

C=C(C)C1CCC2(C(=O)NCCCCC(NC(=O)OC(C)(C)C)C(=O)O)CC[C@]3(C)[C@H](CC[C@@H]4[C@@]5(C)CCC(=O)C(C)(C)[C@@H]5CC[C@]43C)C12 (stereo partly shown) [Monomer-Boc]
Concentration of drug (mg/mL) [21]: 0.7 mg/mL
Concentration of drug (mol/L) [21]: 0.001 mol/L
tolerability in mice [22]: well tolerated

C=C(C)C1CCC2(C(=O)NCCCCC(NC(=O)OC(C)(C)C)C(=O)OC)CC[C@]3(C)[C@H](CC[C@@H]4[C@@]5(C)CCC(=O)C(C)(C)[C@@H]5CC[C@]43C)C12 (stereo partly shown) [Monomer]
inhibition at 100 µM ([2]; 24 h, 24 hours): 76.5 ± 22.6%
inhibition at 10 µM ([2]; 24 h, 24 hours): 19 ± 14.4%
inhibition at 1 µM ([2]; 24 h, 24 hours): 5.5 ± 7.32%
inhibition at 100 µM ([2]; 48 h, 48 hours): ~80%
inhibition at 10 µM ([2]; 48 h, 48 hours): 36.8%
inhibition at 1 µM ([2]; 48 h, 48 hours): 15 ± 11.2%
inhibition at 100 µM ([2]; 72 h, 72 hours): 79.2 ± 16.5%
inhibition at 10 µM ([2]; 72 h, 72 hours): 40.5 ± 33.6%
inhibition at 1 µM ([2]; 72 h, 72 hours): 17.2 ± 32.5%
